Structures can show the parent of a compound that is named as a salt. Where two headings read alike, the source gives them in different places.
How the values were obtained:
[1] = test system: intracellular M. tuberculosis in THP-1 cells; test: microbe, parasite or virus in culture; assay type: cell-based; details: Mycobacterium tuberculosis, H37RA
[2] = test system: intracellular M. tuberculosis in J774 cells; test: Efficacy against intracellular M. tuberculosis (luciferase) in J774 cells; assay type: cell-based; details: Mycobacterium tuberculosis, J774, 120 h
M. kansasii = test: MIC in bacterial broth culture (7H9 with ADC, visual or resazurin); assay type: cell-based; details: Mycobacterium kansasii, Table 31; M. kansasii 303; duplicate values
M. tuberculosis = test: microbe, parasite or virus in culture; assay type: cell-based; details: Mycobacterium tuberculosis
M. tuberculosis Erdman = test: MBC assay, log killing reduction in CFU over a one month period of incubation (Table 35); assay type: cell-based; details: for Log Reduction (cfu): Compound 23A at 4×MIC
[3] = Seven-Day Oral (Gavage) Toxicity and Toxicokinetics Study in Rats; assay type: in vivo, Crl:CD(SD) rats; details: male rats
Excerpt: Seven-Day Oral (Gavage) Toxicity and Toxicokinetics Study in Rats
Crl:CD(SD) rats were obtained from Charles River Laboratories of Stone Ridge, N.Y. The animals were laboratory bred and experimentally naïve. Rats were chosen because they are a species that is commonly used for nonclinical toxicity evaluations.
Animals received the test article or vehicle by oral gavage for 7 consecutive days and were terminated the day following completion of dosing. The first day of dosing was designated as Day 1 of the study. The animals were evaluated for changes in clinical signs, body weight, and other parameters as described below.
The vehicle and test article were administered by oral gavage once daily for 7 consecutive days at a dose volume of 10 mL/kg body weight for Group A and Groups B-D, respectively. The test article and vehicle were administered by oral gavage twice daily, approximately 8 hours apart, for 7 consecutive days at a dose volume of 10 mL/kg body weight for Group E and Group F, respectively. The actual volume administered to each animal was calculated and adjusted based on the most recent body weight of each animal.
During the treatment period, daily cageside observations were made and recorded predose and postdose (following the first dose only). The postdosing observations made during treatment occurred at the following times based on Cmax/Tmax for the two compounds from previous studies:
Prior to start of dosing, body weights were measured for randomization on Day 1. During the treatment, body weights were measured on Day 1 and Day 7. In addition, fasted body weights were measured prior to necropsy for calculation of organ/body weight ratios.
Throughout the study, food consumption was measured daily starting 3 days prior to start of dosing.
Blood samples for evaluation of hematology, coagulation, and serum chemistry parameters were collected from all animals from the retro-orbital plexus (under CO2/O2 anesthesia, for the main study animals) or jugular vein cannula (for the toxicokinetic animals) prior to necropsy. Due to residual heparin used to keep the cannulas patent for the toxicokinetic animals, coagulation samples from these rats, were not able to be analyzed. The animals were fasted overnight prior to blood collection. On the day of blood collection for clinical pathology analyses, the animals were not necropsied until after the blood was collected and the samples judged to be acceptable by the clinical pathology group.
On the 1st and 7th day of dosing, blood samples (approximately 0.5 mL/sample) were collected from the jugular vein cannula for all toxicokinetic animals at the timepoints listed below into K3EDTA-containing tubes. […] Prior to each collection, a small sample of blood (with heparin blocking solution) was removed from the cannula and discarded. A new syringe was placed on the cannula, and the protocol-required sample was taken. The syringe with the blood sample was removed, and a new syringe with saline attached to the cannula. Blood volume was replaced with an equal volume of saline and then blocking solution placed in the cannula. Each animal was returned to its cage until the next collection timepoint.
For all animals euthanized at scheduled necropsies, the kidneys, liver, and prostate gland were weighed. Following weighing, an approximate 1 gram sample of liver and kidney was weighed, transferred to Precellys 7 mL CK28 Tissue Homogenizing tubes (Cat. No. 0904-01), snap-frozen, and analyzed.
For all animals scheduled for the terminal necropsy, the kidneys, liver, and prostate were embedded in paraffin, sectioned and stained with hematoxylin and eosin for further examination by light microscopy. For Groups A, D, E, and F only, the remaining tissues listed above were embedded in paraffin, sectioned and stained with hematoxylin and eosin for further examination by light microscopy. […]

[4] = test system: nonreplicating M. tuberculosis; test: Low-Oxygen-Recovery Assay (LORA) MIC; assay type: cell-based; details: Mycobacterium tuberculosis, read-out: LORA MIC
Excerpt: MIC Determination in the Low-Oxygen-Recovery Assay (LORA) for Nonreplicating M. tuberculosis
Screening for new antimicrobial agents is routinely conducted only against actively replicating bacteria. However, it is now widely accepted that a physiological state of non-replicating persistence (NRP) is responsible for antimicrobial tolerance in many bacterial infections. In tuberculosis, the key to shortening the 6-month regimen lies in targeting this NRP subpopulation. […] Cho S H, Want S, Wan B, Hwang C H, Pauli G F, Franzblau S G; “Low-Oxygen-Recovery Assay for High-Throughput Screening of Compounds against Nonreplicating Mycobacterium tuberculosis” Antimicrob Agents Chemother. 2007 April; 51(4): 1380-1385 doi: 10.1128/AAC.00055-06.

[5] = test system: Non-Replicating (NRP) M. tuberculosis H37Ra; test: Non-replicating (NRP) M. tuberculosis H37Ra (luciferase) culture assay; assay type: cell-based; details: Mycobacterium tuberculosis, 336 h, read on day 14
M. tuberculosis H37Rv = test: Minimum bactericidal concentration (MBC) assay; assay type: cell-based; details: for Log Reduction: vs untreated control
M. smegmatis = test: MIC in bacterial broth culture (7H9 with ADC, visual or resazurin); assay type: cell-based; details: Mycolicibacterium smegmatis, Table 31
[6] = 300 mg/kg twice a day vs controls treated twice a day

Work on `CCNC(=O)Nc1nc2cc(-c3cnc(C(C)(C)O)nc3)c(F)c([C@H]3CCCO3)c2[nH]1` [Compound 23A, methanesulfonic acid salt of 1-ethyl-3-[6-fluoro-5-[2-(1-hydroxy-1-methyl-ethyl)pyrimidin-5-yl]-7-[(2R)-tetrahydrofuran-2-yl]-1H-benzimidazol-2-yl]urea] yielded an IC50 ([1]; THP-1, 120 h, read-out: Mtb H37Ra in THP1 Cells (IC50)) of 0.03 µg/mL, an MIC ([1]; read-out: MIC, Macrophage Cells) of 0.03 µg/mL and an IC50 ([2]; ERDMAN, read-out: Mtb Erdman in J774 Cells (IC50)) of less than 0.17 µg/mL. The IC50 ([2]; H37RV, read-out: Mtb H37Rv in J774 Cells (IC50)) was 0.21 µg/mL, the IC50 ([2]; read-out: Mtb CDC1551 in J774 Cells (IC50)) was 0.12 µg/mL and the MIC (M. kansasii) was 0.03 µg/mL. The MIC (M. tuberculosis; GN9, Table 31, Mtb GN9, duplicate values, read-out: MIC) was 0.03 µg/mL, the MIC (M. tuberculosis; H37RA, read-out: MIC, Broth) was 0.01 µg/mL and the MIC (M. tuberculosis; H37RV, Table 33, M. tuberculosis strain H37Rv, read-out: MIC) was 0.125 µg/mL. The MIC (M. tuberculosis; Table 32, […], duplicate values, read-out: MIC) was 0.125 µg/mL, the MIC (M. tuberculosis; Table 33, M. tuberculosis strain AH13, read-out: MIC) was 0.5 µg/mL and the MIC (M. tuberculosis; Table 33, M. tuberculosis strain BW9, read-out: MIC) was 0.125 µg/mL. For the same compound, the MIC (M. tuberculosis; Table 33, M. tuberculosis strain H10460, read-out: MIC) was 0.5 µg/mL, the MIC (M. tuberculosis; Table 33, M. tuberculosis strain MC19062, read-out: MIC) was 0.125 µg/mL and the MIC (M. tuberculosis; Table 33, M. tuberculosis strain W10, read-out: MIC) was 0.125 µg/mL. The “killing kinetics (log reduction in CFU)” value (M. tuberculosis Erdman; 4×MIC, one month period of incubation) was “slow killing kinetics”, the “Log Reduction (cfu)” value (M. tuberculosis Erdman; day 0 of incubation) was 0 Log and the “Log Reduction (cfu)” value (M. tuberculosis Erdman; day 1 of incubation) was 0.2 Log. The “Log Reduction (cfu)” value (M. tuberculosis Erdman; day 2 of incubation) was 0.2 Log, the “Log Reduction (cfu)” value (M. tuberculosis Erdman; day 3 of incubation) was 1.0 Log and the “Log Reduction (cfu)” value (M. tuberculosis Erdman; day 7 of incubation) was 1.9 Log. For the same compound, the “Log Reduction (cfu)” value (M. tuberculosis Erdman; day 14 of incubation) was 1.9 Log, the “Log Reduction (cfu)” value (M. tuberculosis Erdman; day 21 of incubation) was 2.2 Log and the “Log Reduction (cfu)” value (M. tuberculosis Erdman; day 28 of incubation) was 3.0 Log. For the same compound, the AST [3, 6] was “statistically higher”, the “mean ALT” value [3, 6] was “statistically higher” and the “mean calcium ion concentration (CA)” value [3, 6] was “statistically lower”. The “dose levels at which no adverse toxicity was demonstrated” value ([3]; 7 days oral gavage) was no more than 600 mg/kg/day, the “adverse observations or effects on mean body weight” value ([3]; 7 days oral gavage, all dose groups) was “No adverse observations or effects on mean body weight” and the histopathological findings ([3]; any dose regimen) was “No test article-related histopathological findings”. The “NOEL (No-Observable-Effect-Level)” value ([3]; once a day for 7 days orally via gavage) was 100 mg/kg, the “exposures for different dosage levels” value ([3]; toxicokinetics) was “dose related” and the Mean food consumption ([3]; twice daily 300 mg/kg, not considered adverse) was “reduced”. It also gave an MIC [4] of 0.25 µg/mL, an IC50 [5] of 1 µg/mL and a Log cfu (M. tuberculosis H37Rv; 0.039 ug/mL) of 5.36. The “Log Reduction” value (M. tuberculosis H37Rv; 0.039 ug/mL) was 0.77, the Log cfu (M. tuberculosis H37Rv; 0.078 ug/mL) was 3.75 and the “Log Reduction” value (M. tuberculosis H37Rv; 0.078 ug/mL) was 2.38. The Log cfu (M. tuberculosis H37Rv; 0.156 ug/mL) was 1.04, the “Log Reduction” value (M. tuberculosis H37Rv; 0.156 ug/mL) was 5.09 and the Log cfu (M. tuberculosis H37Rv; 0.312 ug/mL) was 1.32. For the same compound, the “Log Reduction” value (M. tuberculosis H37Rv; 0.312 ug/mL) was 4.81, the Log cfu (M. tuberculosis H37Rv; 0.625 ug/mL) was 1.04 and the “Log Reduction” value (M. tuberculosis H37Rv; 0.625 ug/mL) was 5.09. It also gave an MIC (M. smegmatis) of 6.25 µg/mL.

Source: patent US9937192B2, “Combination therapy to treat mycobacterium diseases” (priority 2012, dated 2018)
